Measurements as given in patent publication US11590139B2, “Substituted aminopurine compounds, compositions thereof, and methods of treatment therewith” (Signal Pharmaceuticals, LLC, priority 2014, dated 2023).

system: Lox-IMVI melanoma cell line; assay: Lox-IMVI anti-proliferative assay (growth inhibition, Cell Titer-Glo); type: cell-based, human; settings: Homo sapiens; IC50 activity level in the cell-based Lox-IMVI anti-proliferative assay; read-out: Activity
Procedure, shortened: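 Viability read by ATP luminescence (Cell Titer-Glo) at t0 and after 72 h at 37 °C, 5% CO2, with normalisation to DMSO-treated cells. Compound tested at 0.5 nM–10 μM in 3-fold, 10-point series (0.2% DMSO final) on Lox-IMVI in RPMI+10% FBS; IC50 by 4-parameter sigmoidal fit.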

SMILES | IC50
NC(=O)[C@H]1CC[C@@H](n2c(Nc3c(Cl)cccc3Cl)nc3cnc(N[C@@H]4CCC[C@H]4O)nc32)CC1 [Example 253, (1S,4s)-4-(8-(2,6-dichlorophenylamino)-2-((1R,2R)-2-hydroxycyclopentylamino)-9H-purin-9-yl)cyclohexanecarboxamide] | > 1 µM
NC(=O)[C@H]1CC[C@@H](n2c(Nc3c(Cl)cc(F)cc3Cl)nc3cnc(N[C@H]4C[C@H](O)C4)nc32)CC1 [Example 284, (1s,4s)-4-(8-(2,6-dichloro-4-fluorophenylamino)-2-((1r,3r)-3-hydroxycyclobutylamino)-9H-purin-9-yl)cyclohexanecarboxamide] | > 1 µM
CCC(C)Nc1ncc2nc(Nc3c(F)ccc(Cl)c3F)n([C@H]3CC[C@@H](C(N)=O)CC3)c2n1 (stereo partly drawn) [Example 340, (1R,4s)-4-(2-(sec-butylamino)-8-(3-chloro-2,6-difluorophenylamino)-9H-purin-9-yl)cyclohexanecarboxamide] | > 1 µM
NC(=O)[C@H]1CC[C@@H](n2c(Nc3c(F)cc(Cl)cc3F)nc3cnc(NC4CCCC4)nc32)CC1 [Example 120, (1s,4s)-4-(8-(4-chloro-2,6-difluorophenylamino)-2-(cyclopentylamino)-9H-purin-9-yl)cyclohexanecarboxamide] | 0.25 to 0.5 µM
Cc1cc(F)c(Nc2nc3cnc(NC4CCOCC4)nc3n2[C@H]2CC[C@@H](C(N)=O)CC2)cc1F [Example 106, (1s,4s)-4-(8-(2,5-difluoro-4-methylphenylamino)-2-(tetrahydro-2H-pyran-4-ylamino)-9H-purin-9-yl)cyclohexanecarboxamide] | > 1 µM
NC(=O)[C@H]1CC[C@@H](n2c(Nc3c(F)cc(F)cc3F)nc3cnc(N[C@@H]4CCC[C@H]4O)nc32)CC1 [Example 249, (1S,4s)-4-(2-((1R,2R)-2-hydroxycyclopentylamino)-8-(2,4,6-tnfluorophenylamino)-9H-purin-9-yl)cyclohexanecarboxamide] | > 1 µM
NC(=O)[C@H]1CC[C@@H](n2c(Nc3cccc(Cl)c3F)nc3cnc(NC4COCC4O)nc32)CC1 (stereo partly shown) [Example 192, (1s,4s)-4-(8-(3-chloro-2-fluorophenylamino)-2-(4-hydroxytetrahydrofuran-3-ylamino)-9H-purin-9-yl)cyclohexanecarboxamide] | > 1 µM
C[C@@H](CO)Nc1ncc2nc(Nc3c(F)cc(C#N)cc3Cl)n([C@H]3CC[C@@H](C(N)=O)CC3)c2n1 [Example 395, (1R,4s)-4-(8-(2-chloro-4-cyano-6-fluorophenylamino)-2-((S)-1-hydroxypropan-2-ylamino)-9H-purin-9-yl)cyclohexanecarboxamide] | > 1 µM
NC(=O)[C@H]1CC[C@@H](n2c(Nc3c(Cl)cc(Cl)cc3Cl)nc3cnc(N[C@@H]4CCCOC4)nc32)CC1 [Example 111, (1S,4s)-4-(2-((R)-tetrahydro-2H-pyran-3-ylamino)-8-(2,4,6-trichlorophenylamino)-9H-purin-9-yl)cyclohexanecarboxamide] | > 1 µM
NC(=O)[C@H]1CC[C@@H](n2c(Nc3c(F)cc(Cl)cc3F)nc3cnc(N[C@@H]4CCC[C@H](O)C4)nc32)CC1 [Example 352, (1S,4s)-4-(8-(4-chloro-2,6-difluorophenylamino)-2-((1R,3S)-3-hydroxycyclohexylamino)-9H-purin-9-yl)cyclohexanecarboxamide] | 0.5 to 1 µM
C[C@@H]1CC[C@@H](Nc2ncc3nc(Nc4c(F)cc(F)cc4Cl)n([C@H]4CC[C@@H](C(N)=O)CC4)c3n2)C[C@H]1O [Example 344, (1S,4s)-4-(8-(2-chloro-4,6-difluorophenylamino)-2-((1R,3R,4R)-3-hydroxy-4-methylcyclohexylamino)-9H-purin-9-yl)cyclohexanecarboxamide] | > 1 µM
C[C@@H](CO)Nc1ncc2nc(Nc3c(F)cc(Cl)cc3Cl)n([C@H]3CC[C@@H](C(N)=O)CC3)c2n1 [Example 135, (1R,4s)-4-(8-(2,4-dichloro-6-fluorophenylamino)-2-((S)-1-hydroxypropan-2-ylamino)-9H-purin-9-yl)cyclohexanecarboxamide] | < 0.25 µM

same assay, conditions: Homo sapiens; Lox-IMVI anti-proliferative assay, IC50 activity level; read-out: Activity

SMILES | IC50
NC(=O)[C@H]1CC[C@@H](n2c(Nc3c(F)cc(F)cc3F)nc3cnc(N[C@@H]4CCO[C@H](CO)C4)nc32)CC1 [Example 446, (1S,4s)-4-(2-((2S,4R)-2-(hydroxymethyl)tetrahydro-2H-pyran-4-ylamino)-8-(2,4,6-trifluorophenylamino)-9H-purin-9-yl)cyclohexanecarboxamide] | > 1 µM
C[C@@H]1COCC[C@@H]1Nc1ncc2nc(Nc3c(F)cc(F)cc3F)n([C@H]3CC[C@@H](C(N)=O)CC3)c2n1 [Example 511, (1R,4s)-4-(2-((3S,4S)-3-methyltetrahydro-2H-pyran-4-ylamino)-8-(2,4,6-trifluorophenylamino)-9H-purin-9-yl)cyclohexanecarboxamide] | 0.5 to 1 µM
NC(=O)[C@H]1CC[C@@H](n2c(Nc3c(F)cc(F)cc3Cl)nc3cnc(N[C@@H]4CCC[C@@H](O)C4)nc32)CC1 [Example 420, (1S,4s)-4-(8-(2-chloro-4,6-difluorophenylamino)-2-((1R,3R)-3-hydroxycyclohexylamino)-9H-purin-9-yl)cyclohexanecarboxamide] | > 1 µM
NC(=O)[C@H]1CC[C@@H](n2c(Nc3c(Cl)cc(Cl)cc3Cl)nc3cnc(N[C@@H]4CCC[C@@H](O)C4)nc32)CC1 [Example 415, (1S,4s)-4-(2-((1R,3R)-3-hydroxycyclohexylamino)-8-(2,4,6-trichlorophenylamino)-9H-purin-9-yl)cyclohexanecarboxamide] | 0.5 to 1 µM
C[C@]1(C(N)=O)CC[C@@H](n2c(Nc3c(Cl)cc(F)cc3Cl)nc3cnc(NC4CC(F)(F)C4)nc32)CC1 [Example 582, (1s,4s)-4-(8-(2,6-dichloro-4-fluorophenylamino)-2-(3,3-difluorocyclobutylamino)-9H-purin-9-yl)-1-methylcyclohexanecarboxamide] | < 0.25 µM
C[C@@H]1COCC[C@H]1Nc1ncc2nc(Nc3c(F)cc(Cl)cc3F)n([C@H]3CC[C@@H](C(N)=O)CC3)c2n1 [Example 532, (1S,4s)-4-(8-(4-chloro-2,6-difluorophenylamino)-2-((3S,4R)-3-methyltetrahydro-2H-pyran-4-ylamino)-9H-purin-9-yl)cyclohexanecarboxamide] | 0.25 to 0.5 µM
C[C@]1(C(N)=O)CC[C@@H](n2c(Nc3c(Cl)cc(C#N)cc3Cl)nc3cnc(N[C@@H]4CCC[C@H](O)C4)nc32)CC1 [Example 569, (1S,4s)-4-(8-(2,6-dichloro-4-cyanophenylamino)-2-((1R,3S)-3-hydroxycyclohexylamino)-9H-purin-9-yl)-1-methylcyclohexanecarboxamide] | < 0.25 µM
N#Cc1cc(F)c(Nc2nc3cnc(NC4CCCOCC4)nc3n2[C@H]2CC[C@@H](C(N)=O)CC2)c(Cl)c1 (stereo partly shown) [Example 543, (1s,4s)-4-(8-(2-chloro-4-cyano-6-fluorophenylamino)-2-(oxepan-4-ylamino)-9H-purin-9-yl)cyclohexanecarboxamide] | < 0.25 µM
NC(=O)[C@H]1CC[C@@H](n2c(Nc3c(F)cc(Cl)cc3Cl)nc3cnc(N[C@@H]4CCC[C@@H](O)C4)nc32)CC1 [Example 422, (1S,4s)-4-(8-(2,4-dichloro-6-fluorophenylamino)-2-((1R,3R)-3-hydroxycyclohexylamino)-9H-purin-9-yl)cyclohexanecarboxamide] | 0.5 to 1 µM
NC(=O)[C@H]1CC[C@@H](n2c(Nc3c(F)cc(F)cc3Cl)nc3cnc(N[C@H]4CCC[C@H](O)C4)nc32)CC1 [Example 459, (1R,4s)-4-(8-(2-chloro-4,6-difluorophenylamino)-2-((1S,3S)-3-hydroxycyclohexylamino)-9H-purin-9-yl)cyclohexanecarboxamide] | > 1 µM

same assay, conditions: Homo sapiens; Lox-IMVI anti-proliferative assay, cell-based; read-out: Activity (IC50 activity level)

SMILES | IC50
CC(=O)N1CCC[C@@H](Nc2ncc3nc(Nc4c(Cl)cc(F)cc4Cl)n([C@H]4CC[C@@H](C(N)=O)CC4)c3n2)C1 [Example 799, (1S,4s)-4-(2-((R)-1-acetylpiperidin-3-ylamino)-8-(2,6-dichloro-4-fluorophenylamino)-9H-purin-9-yl)cyclohexanecarboxamide] | > 1 µM

same assay, conditions: Homo sapiens; Lox-IMVI melanoma cell line, anti-proliferative assay; read-out: Activity (IC50 activity level)

SMILES | IC50
C[C@]1(C(N)=O)CC[C@@H](n2c(Nc3c(F)cc(F)cc3Cl)nc3cnc(N[C@H]4CC[C@H](O)C4)nc32)CC1 [Example 644, (1R,4s)-4-(8-(2-chloro-4,6-difluorophenylamino)-2-((1S,3S)-3-hydroxycyclopentylamino)-9H-purin-9-yl)-1-methylcyclohexanecarboxamide] | 0.25 to 0.5 µM
N#Cc1cc(Cl)c(Nc2nc3cnc(NC[C@@H]4CCCC[C@H]4O)nc3n2[C@H]2CC[C@@H](C(N)=O)CC2)c(Cl)c1 [Example 665, (1R,4s)-4-(8-(2,6-dichloro-4-cyanophenylamino)-2-(((1S,2R)-2-hydroxycyclohexyl)methylamino)-9H-purin-9-yl)cyclohexanecarboxamide] | > 1 µM
C[C@]1(C(N)=O)CC[C@@H](n2c(Nc3c(F)cc(C#N)cc3Cl)nc3cnc(N[C@H]4CCC[C@H](O)C4)nc32)CC1 [Example 615, (1R,4s)-4-(8-(2-chloro-4-cyano-6-fluorophenylamino)-2-((1S,3S)-3-hydroxycyclohexylamino)-9H-purin-9-yl)-1-methylcyclohexanecarboxamide] | < 0.25 µM
NC(=O)[C@H]1CC[C@@H](n2c(Nc3c(Cl)cc(F)cc3Cl)nc3cnc(N[C@@H]4CCCN(C(=O)Nc5ccccc5)C4)nc32)CC1 [Example 784, (R)-3-(9-((1s,4S)-4-carbamoylcyclohexyl)-8-(2,6-dichloro-4-fluorophenylamino)-9H-purin-2-ylamino)-N-phenylpiperidine-1-carboxamide] | > 1 µM
C[C@@H]1COCC[C@H]1Nc1ncc2nc(Nc3c(F)cc(F)cc3Cl)n([C@H]3CC[C@@](C)(C(N)=O)CC3)c2n1 [Example 725, (1S,4s)-4-(8-(2-chloro-4,6-difluorophenylamino)-2-((3S,4R)-3-methyltetrahydro-2H-pyran-4-ylamino)-9H-purin-9-yl)-1-methylcyclohexanecarboxamide] | < 0.25 µM
